# Results: article PMC4113265 (Journal of Natural Products, 2014)
# Tests used:
# MIA PaCa-2 cells = assay: MTT antiproliferation/cytotoxicity assay; format: cell-based, human; settings: MIA PaCa-2, MTT, concentration-response curves (Figure 2A)
# [1] = cited from earlier work
# [2] = freshly prepared rat serum; cited from earlier work
substance,measurement,setting,value
apicidin,potency relative to 1 in MIA PaCa-2 cells,MIA PaCa-2 cells,significantly less active than 1
chlamydocin,half-life (t1/2) in whole blood,[1],0.68 to 3.6 min
same,half-life (t1/2) in serum,[2],8.7 min
trapoxin A,potency relative to 1 in MIA PaCa-2 cells,MIA PaCa-2 cells,comparable potency to 1
